From ChEMBL document CHEMBL4483862, “Open-source discovery of chemical leads for next-generation chemoprotective antimalarials” (2018) come the findings set out here.

The subject of the test is Plasmodium berghei. Put plainly: Luciferase/luciferin-expressing antifolate-resistant parasites were used to infect a culture of HepG2 cells that were pre-incubated with compounds. Infected hepatocytes emit light due to the luciferase reaction. Assay results are presented as the percent inhibition of light emission compared to control. […]. Format: functional. Particulars: sporozoite; for IC90: read-out: LUCIFERASE INFECTION ASSAY - IC90.

[1] abbreviates: read-out: LUCIFERASE INFECTION ASSAY - IC50.

The structures appear in SMILES notation.

`COc1cccc(-c2ccc3ncc(-c4cccc(C(=O)NCCN(C)C)c4)n3n2)c1`: the IC90 (usually the point of the concentration-response curve where the effect stands at 90%) turned out to be 4.07 µM. The IC50 (usually the concentration needed to halve the response being measured) under setting [1] turned out to be 1.69 µM.

`Cc1ccc(C(O)c2nnc(Nc3cc(C(F)(F)F)ccc3F)s2)cc1` (stereo not given): the IC90 is > 10 µM. In addition, the IC50 under setting [1] was > 10 µM.

As for `CC(C(=O)NC(N)=O)N(C)Cc1ccc(OCc2ccc(Cl)cc2)cc1` (stereo not given), the IC90 amounted to 9.89 µM. Moreover, the IC50 (HEPG2TOX_HILL_SLOPE 2.51, HEPG2TOX_R_SQUARED 0.952, PBLUC_HILL_SLOPE 1.26, PBLUC_R_SQUARED 0.93, read-out: LUCIFERASE INFECTION ASSAY - IC50) turned out to be 1.73 µM.

For `CCCCNC(=O)c1c(NC(=O)C(CC)c2ccccc2)nc2ccc(C)cn12` (stereo not given), the IC90 is > 8.41 µM. Also, for the setting “FFLUC_HILL_SLOPE 12.5, FFLUC_R_SQUARED 0.645, PBLUC_HILL_SLOPE 0.242, PBLUC_R_SQUARED 0.0523, read-out: LUCIFERASE INFECTION ASSAY - IC50”, the IC50 is > 8.41 µM.

As to `CCCCCC1C(O)CC(c2ccccc2)N(C)C1c1ccccc1` (stereo not given), the IC90 is > 9.78 µM. The IC50 under setting [1] was > 9.78 µM.

Consider `Cc1cc(C(=O)C(C)OC(=O)c2ccc(NS(=O)(=O)c3ccc4c(c3)OCCO4)cc2)c(C)n1-c1ccc(Cl)cc1` (stereo not given), for which the IC90 was > 10 µM. The IC50 (FFLUC_HILL_SLOPE 2.2, FFLUC_R_SQUARED 0.531, HEPG2TOX_HILL_SLOPE 0.947, HEPG2TOX_R_SQUARED 0.641, PBLUC_HILL_SLOPE 4.36, PBLUC_R_SQUARED 0.544, read-out: LUCIFERASE INFECTION ASSAY - IC50) turned out to be 6.62 µM.

`COc1ccc(C2=NNC(=NCc3ccc4c(c3)OCO4)SC2)cc1F`: the IC90 is > 10 µM. The half-inhibitory concentration (IC50) (FFLUC_HILL_SLOPE 1.69, FFLUC_R_SQUARED 0.437, PBLUC_HILL_SLOPE 4.83, PBLUC_R_SQUARED 0.0332, read-out: LUCIFERASE INFECTION ASSAY - IC50) came out at 8.77 µM.

In the case of `COc1c(Cl)cc([N+](=O)[O-])c(OC)c1C(=O)NC(=O)Nc1cc(Cl)cc(Cl)c1`, the IC90 was > 7.36 µM. For the setting “FFLUC_HILL_SLOPE 1.87, FFLUC_R_SQUARED 0.625, PBLUC_HILL_SLOPE 21.1, PBLUC_R_SQUARED 0.112, read-out: LUCIFERASE INFECTION ASSAY - IC50”, the IC50 is 6.88 µM.

For the compound `COc1ccc([N+](=O)[O-])cc1C(=O)Nc1nc2c(s1)CCCCC2`, the IC90 is 0.411 µM. The IC50 (FFLUC_HILL_SLOPE 3.14, FFLUC_R_SQUARED 0.813, PBLUC_HILL_SLOPE 0.763, PBLUC_R_SQUARED 0.879, read-out: LUCIFERASE INFECTION ASSAY - IC50) came to 0.0231 µM.

`C/C(CCc1ccc2c(c1)OCO2)=N\Nc1nc2ccccc2[nH]1`: the IC90 is > 10 µM. Besides, under setting [1], the IC50 was > 10 µM.

As to `COc1ccc(CO/N=C/NC(=O)C(c2ccc(Cl)cc2)c2nc3ccccc3nc2C(F)(F)F)cc1` (stereo not given), the IC90 was > 6.24 µM. Moreover, the IC50 (HEPG2TOX_HILL_SLOPE 1.06, HEPG2TOX_R_SQUARED 0.661, read-out: LUCIFERASE INFECTION ASSAY - IC50) was > 6.24 µM.

As for `CCOc1ccc(C(C)=O)cc1Cn1cnc2c(cnn2-c2ccccc2)c1=O`, the IC90 is > 10 µM. The IC50 (FFLUC_HILL_SLOPE 11.6, FFLUC_R_SQUARED 0.166, HEPG2TOX_HILL_SLOPE 1.94, HEPG2TOX_R_SQUARED 0.895, read-out: LUCIFERASE INFECTION ASSAY - IC50) is > 10 µM.

Take `Fc1cccc(-c2cnc3cnc(-c4ccc(CNc5ccccc5)cc4)cn23)c1`: the IC90 was > 8.37 µM. The IC50 (PBLUC_HILL_SLOPE 9.4, PBLUC_R_SQUARED 0.212, read-out: LUCIFERASE INFECTION ASSAY - IC50) is > 8.37 µM.

Regarding `Cc1nc(SCc2csc(-c3ccccc3)n2)c(C#N)c(C)c1C`, the IC90 was > 10 µM. In addition, under setting [1], the IC50 was > 10 µM.

Take `CCCn1c(NC(=O)Cc2csc(NC(=O)c3ccco3)n2)nc2ccccc21`: the IC90 is > 10 µM. Also, for the setting “PBLUC_HILL_SLOPE 1.19, PBLUC_R_SQUARED 0.0275, read-out: LUCIFERASE INFECTION ASSAY - IC50”, the IC50 is > 10 µM.

On to `c1cncc(-c2nc(Oc3ccc(-c4nnc5n4CCCCC5)cc3)c3ccccc3n2)c1`, for which the IC90 is > 10 µM. The IC50 (PBLUC_HILL_SLOPE 11.7, PBLUC_R_SQUARED 0.282, read-out: LUCIFERASE INFECTION ASSAY - IC50) is > 10 µM.

Consider `COc1ccc(-c2cnc(N)c(-c3ccc(O)c(OC)c3)c2)cc1`, for which the IC90 amounted to 3.77 µM. Further, the IC50 (HEPG2TOX_HILL_SLOPE 8.61, HEPG2TOX_R_SQUARED 0.753, PBLUC_HILL_SLOPE 13.4, PBLUC_R_SQUARED 0.628, read-out: LUCIFERASE INFECTION ASSAY - IC50) was found to be 3.2 µM.

As for `O=C(Nc1ccc(OC(F)(F)F)cc1)Nc1ccc2nc(-c3ccsc3)nn2c1`, the IC90 is 9.37 µM. The IC50 (FFLUC_HILL_SLOPE 13.4, FFLUC_R_SQUARED 0.266, PBLUC_HILL_SLOPE 2.61, PBLUC_R_SQUARED 0.893, read-out: LUCIFERASE INFECTION ASSAY - IC50) was 4.04 µM.

In the case of `CCN(CC)S(=O)(=O)c1ccc(C(C)NC(=O)c2nn(CC)c(=O)c3ccccc23)cc1` (stereo not given), the concentration for an effect of 90% (IC90) came to 4.01 µM. Under “PBLUC_HILL_SLOPE 3.22, PBLUC_R_SQUARED 0.606, read-out: LUCIFERASE INFECTION ASSAY - IC50”, the IC50 was 2.02 µM.

As to `O=C1COc2cc(C(=O)Oc3ccc4ccccc4c3Br)ccc2N1`, the IC90 is > 10 µM. Moreover, the IC50 under setting [1] was > 10 µM.

Turning to `COC(=O)c1c(C)[nH]c(C(=O)C(C)OC(=O)c2ccccc2NS(=O)(=O)c2ccc(Br)s2)c1C` (stereo not given), the IC90 is > 10 µM. Moreover, the IC50 (HEPG2TOX_HILL_SLOPE 1.22, HEPG2TOX_R_SQUARED 0.375, PBLUC_HILL_SLOPE 2.55, PBLUC_R_SQUARED 0.409, read-out: LUCIFERASE INFECTION ASSAY - IC50) was found to be 7.98 µM.

With `O=C1C(=O)N(CCN2CCOCC2)c2ccc(F)cc21`, the IC90 was > 11.9 µM. Moreover, the IC50 (PBLUC_HILL_SLOPE 4.75, PBLUC_R_SQUARED 0.191, read-out: LUCIFERASE INFECTION ASSAY - IC50) came out at 10.9 µM.

Turning to `CCCCn1c(N)c(N(C)CC(=O)Nc2scc(-c3ccccc3)c2C(=O)OCC)c(=O)[nH]c1=O`, the IC90 came out at 8.26 µM. Under “FFLUC_HILL_SLOPE 12.3, FFLUC_R_SQUARED 0.419, PBLUC_HILL_SLOPE 4.64, PBLUC_R_SQUARED 0.375, read-out: LUCIFERASE INFECTION ASSAY - IC50”, the IC50 was 5.15 µM.

Take `CC(Oc1ccc(C#N)cc1)C(=O)Nc1nc(-c2ccccn2)cs1` (stereo not given): the 90% effect concentration (IC90) is 3.36 µM. Also, the half-inhibitory concentration (IC50) (HEPG2TOX_HILL_SLOPE 1.33, HEPG2TOX_R_SQUARED 0.927, PBLUC_HILL_SLOPE 145, PBLUC_R_SQUARED 0.223, read-out: LUCIFERASE INFECTION ASSAY - IC50) worked out at 3.31 µM.

In the case of `Cc1ccc(C)c(N2C(=O)C=CC2=O)c1`, the IC90 is > 16.4 µM. Besides, for the setting “PBLUC_HILL_SLOPE 15.1, PBLUC_R_SQUARED 0.421, read-out: LUCIFERASE INFECTION ASSAY - IC50”, the IC50 is 14.8 µM.

As to `O=C(CN1CCN(Cc2nc3ccccc3s2)CC1)NN1C(=O)NC2(CCCCC2)C1=O`, the IC90 was > 10 µM. In addition, under setting [1], the IC50 is > 10 µM.

Take `Cc1ccc(N2C(=O)C=CC2=O)c(C)c1`: the IC90 amounted to 6.84 µM. Also, the IC50 (HEPG2TOX_HILL_SLOPE 8.83, HEPG2TOX_R_SQUARED 0.656, PBLUC_HILL_SLOPE 7.12, PBLUC_R_SQUARED 0.655, read-out: LUCIFERASE INFECTION ASSAY - IC50) is 5.02 µM.

For `CCOC(=O)c1c(N2C(=O)C=CC2=O)sc2c1CCCC2`, the IC90 was > 10.8 µM. In addition, the IC50 (FFLUC_HILL_SLOPE 2.83, FFLUC_R_SQUARED 0.0392, read-out: LUCIFERASE INFECTION ASSAY - IC50) was > 10.8 µM.

For the compound `Cc1cn2c(CNCCc3ccc(N4CCCCC4)cc3)c(C)nc2s1`, the IC90 was 0.606 µM. Besides, the IC50 (HEPG2TOX_HILL_SLOPE 1.99, HEPG2TOX_R_SQUARED 0.618, PBLUC_HILL_SLOPE 85.2, PBLUC_R_SQUARED 0.531, read-out: LUCIFERASE INFECTION ASSAY - IC50) is 0.591 µM.

`O=C(NC(=S)Nc1ccc(F)cc1)c1cnn2c(C(F)(F)F)cc(C(F)(F)F)nc12`: the IC90 is > 7.31 µM. Further, the IC50 under setting [1] was > 7.31 µM.

Regarding `CCN1C/C(=C/c2ccc(OC)c(O)c2)C(=O)/C(=C/c2ccc(OC)c(O)c2)C1`, the IC90 amounted to 4.05 µM. Also, the IC50 (HEPG2TOX_HILL_SLOPE 4, HEPG2TOX_R_SQUARED 0.984, PBLUC_HILL_SLOPE 15.6, PBLUC_R_SQUARED 0.475, read-out: LUCIFERASE INFECTION ASSAY - IC50) was found to be 3.52 µM.

Turning to `COc1cc(NS(=O)(=O)c2ccc3ccccc3c2)c(OC)cc1Cl`, the IC90 was determined as 4.48 µM. Moreover, the IC50 under setting [1] came out at 2.78 µM.

For `Cc1cc(-n2c(-c3cccnc3Oc3ccccc3)n[nH]c2=S)ccc1Br`, the IC90 is > 7.51 µM. In addition, the IC50 (PBLUC_HILL_SLOPE 0.263, PBLUC_R_SQUARED 0.232, read-out: LUCIFERASE INFECTION ASSAY - IC50) is > 7.51 µM.

`O=C(Nc1ccc(Oc2ccccc2)cc1)c1csc(C(O)c2cccc(OC(F)(F)F)c2)n1` (stereo not given): the IC90 was 5.15 µM. The IC50 (HEPG2TOX_HILL_SLOPE 1.57, HEPG2TOX_R_SQUARED 0.929, PBLUC_HILL_SLOPE 3.6, PBLUC_R_SQUARED 0.22, read-out: LUCIFERASE INFECTION ASSAY - IC50) amounted to 2.8 µM.

In the case of `CN(C)CCCOc1ccc(-c2nnc3ccc(-c4cccc(Oc5ccccc5)c4)cn23)cc1`, the IC90 was > 10 µM. In addition, the IC50 (PBLUC_HILL_SLOPE 15.3, PBLUC_R_SQUARED 0.363, read-out: LUCIFERASE INFECTION ASSAY - IC50) was 9.36 µM.
